Test [1] has as its system folyl poly-γ-glutamate synthetase (FPGS). The following applies: cited from earlier work.
The target in a further test is T1, P. carinii DHFR (Pneumocystis carinii, UniProt P16184).
T1 sequence (P16184 1-206): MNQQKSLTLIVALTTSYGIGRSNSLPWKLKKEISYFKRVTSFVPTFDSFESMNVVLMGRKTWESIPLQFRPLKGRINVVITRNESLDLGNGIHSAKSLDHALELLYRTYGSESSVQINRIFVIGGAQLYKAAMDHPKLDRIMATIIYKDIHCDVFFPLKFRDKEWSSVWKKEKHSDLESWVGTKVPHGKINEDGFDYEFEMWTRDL
It counts as biochemical. The following applies: IC50 rat liver DHFR / IC50 P. carinii DHFR.

Each structure is given as a SMILES string. Some results are limits rather than exact numbers.

The values below come from PMC2818873 (Bioorganic & medicinal chemistry, 2009).

As to `Cc1c(Sc2ccc(C(=O)N[C@@H](CCC(=O)O)C(=O)O)cc2)[nH]c2nc(N)nc(N)c12` [Compound 4], the FPGS substrate activity result in test [1] is on record as “reasonable FPGS substrate activity”. For the compound `Cc1c(Sc2cccc3ccccc23)oc2nc(N)nc(N)c12` [Compound 6, 2,4-Diamino-5-methyl-6-(1-naphthylthio)furo[2,3-d]pyrimidine], on P. carinii DHFR, the Selectivity ratio rl/pc is over 10.
